Structures can show the parent of a compound that is named as a salt.
System: Rattus norvegicus
Settings: oral
[1] = subchronic, gavage, M, Sprague-Dawley, Absolute Organ Weight: Liver increase + Relative Organ Weight: Liver increase + Necropsy: Stomach-Thickening of limiting ledge + …
[2] = chronic, duration: 92 days, gavage, M/F, Fischer 344, Histopathology: Liver-Proliferation of smooth endoplasmic reticulum, parenchymal cell (Electron-microscopic examination) Liver-Decrease in …

SMILES: CC(C)(c1cc(Br)c(OCC(Br)CBr)c(Br)c1)c1cc(Br)c(OCC(Br)CBr)c(Br)c1 (configuration not stated) [Tetrabromobisphenol A-bis(2,3-dibromopropyl ether)]
- NOEL (subchronic, gavage, Sprague-Dawley): 1000 mg/kg-day

SMILES: COc1ccc(OC)c(N)c1 [Benzenamine, 2,5-dimethoxy-]
- NOEL (short-term, duration: 28 days, gavage, M/F, Clinical Observation: Salivation + Body Weight Changes: Weight gain decrease + Food Consumption: decrease + Hematology: HGB decrease, RET …): 1 mg/kg-day

SMILES: CC(C)c1ccc2oc3nc(N)c(C(=O)O)cc3c(=O)c2c1 [Amlenanox]
- NOEL (subchronic, duration: 35 days, gavage, M/F, Wistar, Blood Chemistry: ALP increase + Absolute Organ Weight: Cecum increase, Stomach increase + Relative Organ Weight: Carcass increase, Cecum …): 200 mg/kg-day

SMILES: Oc1cccc(Br)c1 [Phenol, 3-bromo-]
- NOEL (short-term, duration: 28 days, gavage, M/F, Sprague-Dawley, Clinical Observation: Salivation + Body Weight Changes: Weight gain decrease + Water Consumption: increase + Urinalysis: Volume increase + …): 300 mg/kg-day

SMILES: c1ccc2c(c1)[nH]c1ccccc12 [Carbazole]
- NOEL (subchronic, gavage, M, Sprague-Dawley, Body Weight Changes: decrease + Blood Chemistry: T-Cho increase, PL increase, Glu decrease + Absolute Organ Weight: Liver increase, Kidney …): 25 mg/kg-day

SMILES: Cc1ccc(S(=O)(=O)Cl)cc1 [p-Toluenesulfonyl chloride]
- NOAEL (subchronic, duration: 51 days, gavage, M, Sprague-Dawley, Clinical Observation: Soft stool Staining around anorectal region Staining around mouth Staining around nose(blood like) Loss of hair around…): < 150 mg/kg-day

SMILES: O=[N+]([O-])c1cc([As](=O)(O)O)ccc1O [4-Hydroxy-3-nitrophenylarsonic acid]
- NOEL (subchronic, duration: 13 weeks, diet, M/F, Fischer 344, Deaths + Clinical Observation: Ruffled fur Hyperexcitability Ataxia Trembling Slight inactivity + Body Weight Changes: decrease + Relative …): < 4.8 mg/kg-day

SMILES: CCOC(=O)/C=C\C(=O)OCC [Diethyl maleate]
- NOAEL [1]: 20 mg/kg-day
- NOEL [1]: 20 mg/kg-day

SMILES: [Cl-].[Cl-].[Ti+4].c1cc[cH-]c1.c1cc[cH-]c1 [Titanocene dichloride]
- NOEL (subchronic, duration: 13 weeks, gavage, M/F, Fischer 344, Deaths + Body Weight Changes: decrease + Absolute Organ Weight: Liver increase, Thymus decrease + Relative Organ Weight: kidney increase, …): < 8 mg/kg-day

SMILES: Nc1ccc([N+](=O)[O-])cc1O [2-Amino-5-nitrophenol]
- NOEL (subchronic, duration: 13 weeks, gavage, M/F, Fischer 344, Deaths + Body Weight Changes: decrease + Absolute Organ Weight: Liver increase + Relative Organ Weight: Liver increase + Histopathology: …): < 100 mg/kg-day

SMILES: C=C(C)CCl [3-Chloro-2-methylpropene]
- NOEL (subchronic, duration: 13 weeks, gavage, M/F, Fischer 344, Deaths + Clinical Observation: Rough coat>400 + Body Weight Changes: decrease + Histopathology: Liver-Inflammation, Chronic, Focal Liver-…): 100 mg/kg-day

SMILES: CCCCN(CCCC)C(=S)[S-].CCCCN(CCCC)C(=S)[S-].[Cu+2] [Bis(N,N-dibutyldithiocarbamato)copper]
- NOEL (subchronic, gavage, M, Sprague-Dawley, Urinalysis: Protein increase, Cl increase + Blood Chemistry: Cho increase + Relative Organ Weight: Adrenal decrease): < 40 mg/kg-day

SMILES: Cc1ccc(Cl)c(Cl)c1 [3,4-Dichlorotoluene]
- NOEL (subchronic, gavage, M, Sprague-Dawley, Deaths + Clinical Observation: Death-1/6 on treatment day 15R + Body Weight Changes: decrease(tendency)Body weight gain decrease(tendency…): 100 mg/kg-day

SMILES: CCC1(c2ccccc2)C(=O)NCNC1=O [Primidone]
- NOEL (chronic, duration: 14 weeks, diet, M/F, Fischer 344, Body Weight Changes: decrease + Hematology: Plt increase, Hgb decrease, WBC increase, Lympho increase + Blood Chemistry: Blood cemistry', '…): < 23.4 mg/kg-day

SMILES: CC1(C)S[C@@H]2[C@H](NC(=O)COc3ccccc3)C(=O)N2[C@H]1C(=O)[O-].[K+] [Penicillin VK]
- NOEL (subchronic, duration: 13 weeks, gavage, M/F, Fischer 344, Clinical Observation: Diarrhea + Body Weight Changes: decrease + Histopathology: Stomach/glandular-Mucous cell metaplasia): 370 mg/kg-day

SMILES: CCCCCCCCCCCCc1ccc(S(=O)(=O)[O-])cc1.COc1ccc(C[N+](C)(C)c2ccccc2)cc1
- NOEL (short-term, duration: 28 days, gavage, M/F, Clinical Observation: Salivation + Urinalysis: Occult blood + Blood Chemistry: GPT increase, T-CHO increase, K increase, GOT increase, TG …): 25 mg/kg-day

SMILES: CC1(C)COC(=O)C1O (configuration not stated) [2(3H)-Furanone, dihydro-3-hydroxy-4,4-dimethyl-]
- NOAEL (short-term, duration: 28 days, gavage, M, Sprague-Dawley, Blood Chemistry: K increase): 200 mg/kg-day

SMILES: CCc1ncnc(Cl)c1Cl [4,5-DICHLORO-6-ETHYLPYRIMIDINE]
- NOEL (short-term, duration: 28 days, gavage, M/F, Deaths + Clinical Observation: Salivation Locomotor activity decrease, Ptosis + Body Weight Changes: Weight gain decrease + Food Consumption…): 5 mg/kg-day

SMILES: C1CN2CCN1CC2 [1,4-Diazabicyclo[2.2.2]octane]
- NOAEL (short-term, duration: 29 days, gavage, M, Sprague-Dawley, Body Weight Changes: Weight gain decrease + Food Consumption: decrease + Histopathology: Kidney: Inflammation, chronic Kidney: Proliferation): 100 mg/kg-day

SMILES: Cc1ccc(C)c(OCCCC(C)(C)C(=O)O)c1 [Gemfibrozil]
- NOAEL (chronic, duration: 91 days, diet, F, CD, Body Weight Changes: Body weight gain decrease + Hematology: RBC decrease, HCT decrease, HGB decrease, Plt increase, RET increase + Blood …): 30 mg/kg-day
- NOAEL (chronic, duration: 91 days, diet, M, CD, Body Weight Changes: Body weight gain decrease + Hematology: RBC decrease, HCT decrease, HGB decrease, Plt increase, RET increase + Blood …): < 30 mg/kg-day

SMILES: Nc1ccccc1OCCOc1ccccc1N [2,2'-[Ethane-1,2-diylbis(oxy)]dianiline]
- NOEL (short-term, duration: 28 days, gavage, M/F, Blood Chemistry: Alb increase, T-Bil increase, TG decrease, GPT increase, TP increase + Organ Weight: Liver increase, Kidney increase + …): < 50 mg/kg-day

SMILES: CC(C)(C)CC(C)(C)c1cc(O)c(C(C)(C)CC(C)(C)C)cc1O [2,5-Bis(1,1,3,3-tetramethylbutyl)hydroquinone]
- NOEL (subchronic, gavage, M, Sprague-Dawley, Clinical Observation: Soft stool Soiled perineal region + Body Weight Changes: Gain decrease + Food Consumption: increase + Hematology: Hgb …): 10 mg/kg-day

SMILES: CCCCCCCCCCCCCCCCCC[N+](C)(C)CCCCCCCCCCCCCCCCCC.[Cl-] [Dimethyldioctadecylammonium chloride]
- NOAEL (short-term, duration: 28 days, gavage, M/F, Wistar, Body Weight Changes: Weight gain decrease + Hematology: WBC increase + Histopathology: Adrenal: Necrosis, cortex Adrenal: Granulocytes …): 100 mg/kg-day

SMILES: CN(C)C(=O)c1nc(CNC(=O)CN)n(-c2ccc(Cl)cc2C(=O)c2ccccc2Cl)n1.Cl [Rilmazafone hydrochloride]
- NOAEL [2]: 25 mg/kg-day
- NOEL [2]: 1 mg/kg-day

Reference: EPA's ToxValDB 9.5
